The text below walks through data of the METLIN SMRT retention time set (Domingo-Almenara et al. 2019).

The data set can be described thus: gradient 5% acetonitrile 3 min, to 50% in 2 min, to 85% in 15 min, held 3 min, 100 µL/min. To be noted: column: Zorbax Extend-C18 2.1 x 50 mm; eluents: water / acetonitrile, 0.1% formic acid. Put shortly: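 The mobile phases were water and acetonitrile, each with 0.1% formic acid, pumped at 100 μL/min through a Zorbax Extend-C18 column (2.1 × 50 mm, 1.8 μm). Pure standards were injected as mixtures of ~100 molecules and detected by a quadrupole time-of-flight mass spectrometer in positive and negative ionization mode. Retention time came from computationally picked adduct peaks, each inspected by hand.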
Consider `CC1CCN(c2ccc(C(=O)NCC3CCCO3)cc2S(=O)(=O)N2CCC(C)CC2)CC1` (stereo not given), for which the RP-LC retention time worked out at 1170 s.

Regarding `C=CCn1c(SCC(=O)N2CCC(C(N)=O)CC2)nnc1-c1sc2ncccc2c1N`, the RP-LC retention time turned out to be 616 s.

`O=c1c2nc(-c3ccccc3)cn2ccn1-c1ccc(Cl)cc1` registered an RP-LC retention time of 841 s.

The compound `COc1ccc(-c2nc(-c3cn(Cc4cccc(F)c4)nn3)no2)cc1` came in with an RP-LC retention time of 983 s.

For the compound `CCOCCCNC(=O)N1CCN(c2nc3ccccc3n3cccc23)CC1`, the RP-LC retention time was 618 s.

For `COCCNC(=O)c1nc(Nc2ccc(C)cc2)c2ccccc2n1`, the RP-LC retention time was found to be 698 s.

Regarding `CC(C)CN1C(=O)c2cccn2CC1C(=O)NC1CCCCCC1` (stereo not given), the RP-LC retention time was 812 s.

The compound `Cc1nc(CC(=O)Nc2ccc(Cl)c(F)c2)sc1C(=O)NC1CC1` registered an RP-LC retention time of 750 s.

With `CC1CCC(NC(=O)C2CCCN(c3cn[nH]c(=O)c3)C2)CC1` (stereo not given), the RP-LC retention time was 680 s.

`O=c1c2ccc(O)cc2oc2cc(O)ccc12` had an RP-LC retention time of 612 s.

The compound `Cc1cc(C)c(S(=O)(=O)N2CCCC2c2nc(-c3cccc(F)c3)no2)cc1C` (stereo not given) came in with an RP-LC retention time of 1270 s.

As to `CCCN1C(=O)COc2ccc(-c3noc(C4CC(=O)N(c5cccc(Cl)c5)C4)n3)cc21` (stereo not given), the RP-LC retention time is 1080 s.

`CCn1cnc2cc(-c3noc(C4CC(=O)N(c5ccccc5)C4)n3)ccc21` (stereo not given) returned an RP-LC retention time of 664 s.

Compound `Cn1cccc1C(=O)C(=O)NCCc1ccc(Cl)cc1` returned an RP-LC retention time of 939 s.

As for `O=C([C@@H]1C[C@H](F)CN1C(=O)Nc1cccc(F)c1)N1CCOCC1`, the RP-LC retention time worked out at 628 s.

For the compound `O=C(Nc1ccc(Cl)cc1)C1CCN(S(=O)(=O)c2ccc(-c3noc(C4CC4)n3)cc2)CC1`, the RP-LC retention time came to 1100 s.

Compound `CC(=O)Nc1cccc2c(C(=O)N3CCN(c4cccc(Cl)c4)CC3)ccnc12` had an RP-LC retention time of 920 s.

Turning to `CCCN1CCN(C(=O)CC2Sc3ncccc3N(C)C2=O)CC1` (stereo not given), the RP-LC retention time turned out to be 576 s.

With `O=[N+]([O-])c1cc(O)c(O)c([N+](=O)[O-])c1`, the RP-LC retention time came to 730 s.

Regarding `O=C(NCCCn1ncccc1=O)c1cccc(-n2ccc3ccccc32)c1`, the RP-LC retention time came out at 770 s.

`CCCN1CCN(C(=O)CCCn2c3ccccc3c3cnn(C)c(=O)c32)CC1` showed an RP-LC retention time of 600 s.

Turning to `COc1ccc(Cl)cc1S(=O)(=O)c1cnc(N2CCC(C)CC2)nc1N`, the RP-LC retention time stood at 1040 s.

Compound `O=C(NC1CCN(c2ccccc2)C1=O)c1ccc(Br)o1` (stereo not given) came in with an RP-LC retention time of 773 s.

Compound `OC[C@@H]1CN(Cc2ccco2)C[C@H]1c1nc(-c2cccnc2)no1` gave an RP-LC retention time of 557 s.

Take `COc1cccc(-n2cc(C(=O)OCc3cccnc3)c3ccccc3c2=O)c1`: the RP-LC retention time amounted to 754 s.

In the case of `O=C(c1ccc(OCC2CCCN(C(=O)c3ccc(F)cc3)C2)cc1)N1CCOCC1` (stereo not given), the RP-LC retention time stood at 769 s.

Consider `Fc1ccc(CN2CCO[C@@H](COc3ccccn3)[C@@H]2c2ccccc2)c(F)c1`, for which the RP-LC retention time came to 894 s.

`CCOCC(=O)Nc1ccc(-c2cn3c(C(=O)N(C)C)csc3n2)cc1` registered an RP-LC retention time of 647 s.

For the compound `COc1ccc(NC(=O)N2[C@H]3CC[C@@H]2c2cnc(-c4ccc(F)cc4)nc2C3)c(OC)c1`, the RP-LC retention time was determined as 961 s.

With `COC(=O)C1=CN(c2cc(C)cc(C)c2)c2ccccc2S1(=O)=O`, the RP-LC retention time is 943 s.

`CC1(C)C(=O)NCCN1C(=O)C1COc2ccccc2O1` (stereo not given): the RP-LC retention time turned out to be 628 s.

`Cc1noc2nc(C)n(CC(=O)NCc3ccccc3)c(=O)c12` gave an RP-LC retention time of 716 s.

`CN(C(=O)c1cc2c(=O)oc3ccccc3c2n1C)c1ccccc1F` registered an RP-LC retention time of 1060 s.

On to `COc1ccc(-c2csc3nc[nH]c(=O)c23)cc1`, for which the RP-LC retention time stood at 671 s.

For `Cc1cc(C(=O)N2CCCCCC2c2nnc(C)o2)no1` (stereo not given), the RP-LC retention time turned out to be 698 s.

In the case of `CCCC(=O)Nc1cnc(N2CCNCC2)c(C(=O)N(CC(C)C)CC(C)C)c1`, the RP-LC retention time is 652 s.

Take `CC(C)C(=O)Nc1ccc(CCc2nc3ccc(C(=O)NC4CC4)cc3[nH]2)cc1`: the RP-LC retention time is 594 s.

Compound `CCc1ccc(NC(=O)Cn2c(N)nc(CC)cc2=O)cc1` registered an RP-LC retention time of 596 s.

The compound `O=C(Nc1ccccc1)N1CCC(N(C(=O)C2CC2)C2CCOCC2)CC1` yielded an RP-LC retention time of 697 s.

Take `COc1ccccc1NS(=O)(=O)c1ccc2c(c1)C(=O)N(C)c1ncccc1O2`: the RP-LC retention time is 885 s.

On to `CCCn1cc(-c2ccncc2)cc1C(=O)NC1CC1`, for which the RP-LC retention time was 579 s.

As to `COc1cccc(NS(=O)(=O)c2c(C)nn(-c3ccc(-c4ccc(C)cc4)nn3)c2C)c1`, the RP-LC retention time came out at 1080 s.

Compound `CC(C)CNC(=O)CCc1nc2ccccc2n(CC(=O)NCc2ccc(F)cc2)c1=O` yielded an RP-LC retention time of 783 s.

`O=C(N[C@H](Cc1ccccc1)C(=O)NCc1cscn1)c1ccccc1` showed an RP-LC retention time of 738 s.

Compound `Cc1cnc(C(=O)N2CCCCCCNC(=O)[C@@H]3CCCC[C@@H]32)cn1` registered an RP-LC retention time of 694 s.

In the case of `Cc1ccc(-n2cc3c(c(C(=O)NC(C)C)c2=O)CC(C)(C)CC3=O)cc1`, the RP-LC retention time was 932 s.

`Cc1nnsc1C(=O)N1CCC(CNC(=O)NC(c2ccccc2)c2ccccc2)CC1` had an RP-LC retention time of 759 s.

The compound `CCOc1cccc(C2c3[nH]c4ccccc4c3CCN2C(=O)Cc2cccs2)c1` (stereo not given) gave an RP-LC retention time of 1180 s.

Regarding `Cc1ccc(NC(=O)N2CCC(c3nc(C(=O)N4CCCC4)c(C)o3)CC2)cc1Cl`, the RP-LC retention time is 895 s.

On to `CNC(=O)c1cc2c(s1)N(CC1CC1)CCCC2`, for which the RP-LC retention time stood at 889 s.

On to `COc1ccc(NC(=O)C2(C)Oc3cccnc3NC2=O)c(OC)c1` (stereo not given), for which the RP-LC retention time stood at 707 s.

Compound `Cc1ccc(CNC(=O)Cc2nnc(-c3cnccn3)o2)cc1C` gave an RP-LC retention time of 720 s.

The compound `CCC(CC)NC(=O)C1Cn2cccc2C(=O)N1CC(C)C` (stereo not given) showed an RP-LC retention time of 756 s.

In the case of `Cc1ccc(N2C(=O)N(Cc3ccc(F)cc3)S(=O)(=O)c3cccnc32)cc1`, the RP-LC retention time was determined as 1080 s.

`CCC(C)C(=O)N1CCCN(C2=NS(=O)(=O)C(c3ccc(C)cc3)=C2C)CC1` (stereo not given) gave an RP-LC retention time of 828 s.

Turning to `Cc1cc(C)n(-c2ccc(=O)n(C(C)C(=O)NCCc3csc(-c4ccccc4)n3)n2)n1` (stereo not given), the RP-LC retention time was determined as 780 s.

In turn, `CCOC(=O)CNC(=O)Nc1ccc(CCc2nc3ccccc3[nH]2)cc1` returned an RP-LC retention time of 606 s.

`CC(=O)c1ccc(S(=O)(=O)NCCC2CCN(C(=O)c3ccc(F)cc3)CC2)cc1` displayed an RP-LC retention time of 795 s.

Regarding `CCOCCCNC(=O)c1nnc(-c2ccc(S(=O)(=O)N3CCC(C)CC3)cc2)o1`, the RP-LC retention time was 924 s.

As for `COc1ccc(OC)c(CNC(=O)CN2C(=O)CSc3cccn3-c3ccccc32)c1`, the RP-LC retention time was 914 s.

Compound `CCCN1CCN(C(=O)CC2CCN(C(=O)c3[nH]c(C)c(C(=O)OC(C)C)c3C)CC2)CC1` displayed an RP-LC retention time of 624 s.

For `CCCCN(CC)c1nc(C)nc2c1c(C)cn2-c1c(C)cc(C)cc1C`, the RP-LC retention time was 945 s.

For the compound `COc1cc(NC(=O)N2CCN(c3ccc(=O)n(-c4ccc(C)cc4)n3)CC2)cc(OC)c1OC`, the RP-LC retention time came to 749 s.

`Cc1ccc(NC(=O)N(C)CC2CCOCC2)cc1C`: the RP-LC retention time amounted to 795 s.

The compound `O=C(Nc1ccc2nncn2c1)Nc1cc(F)ccc1F` registered an RP-LC retention time of 726 s.

In turn, `Cn1nc(C(=O)N2CCCC(C(=O)Nc3ccccc3)C2)c2c1CCN(C(=O)C1CCCC1)C2` (stereo not given) gave an RP-LC retention time of 786 s.

Turning to `Cc1cccc(NC(=O)COc2cc(C)nc(N3CCN(c4ccccc4)CC3)n2)c1`, the RP-LC retention time was determined as 856 s.

On to `COc1cccc(-c2nc(-c3ccc4oc(C)nc4c3)no2)c1`, for which the RP-LC retention time amounted to 1110 s.

Compound `CCOC(=O)N1CCN(C(=O)Cc2c(C)nn(-c3nc(-c4ccc(F)cc4)cs3)c2C)CC1` displayed an RP-LC retention time of 1010 s.

`CC1(C)C(=O)N2c3ccccc3C3(CC(N4C(=O)c5ccccc5C4=O)C(=O)O3)C2N1C(=O)OCc1ccccc1` (stereo not given) registered an RP-LC retention time of 1170 s.

As to `CCCN(CC1CCOC1)C(=O)Nc1ccc(C(F)(F)F)cc1` (stereo not given), the RP-LC retention time amounted to 908 s.

In the case of `O=C(NCc1ccccc1)N1CCc2nc(-c3ccccc3)ncc2C1`, the RP-LC retention time was 848 s.

For the compound `Clc1ccc2nc(-c3ccc(N4CCOCC4)cc3)c(Nc3ccc4c(c3)OCO4)n2c1`, the RP-LC retention time stood at 715 s.

On to `CCc1ccc(NC(=O)NCCn2c(-c3ccncc3)nc3cccnc32)cc1`, for which the RP-LC retention time is 623 s.

In turn, `Cc1nc(-c2cc(S(=O)(=O)N3CCC(C(=O)NCc4ccco4)CC3)c(C)s2)no1` gave an RP-LC retention time of 837 s.

For `Cc1nn(C)c(C)c1S(=O)(=O)N1[C@H]2CC[C@@H]1c1cnc(-c3ccc(F)cc3)nc1C2`, the RP-LC retention time turned out to be 924 s.

Compound `COc1ccc(NC(=O)c2sc(N3CCCC3=O)nc2C)cc1Cl` returned an RP-LC retention time of 809 s.

`CCc1ccccc1N(C)C(=O)Cn1ccc2c(=O)n(C)c(=O)n(C)c21`: the RP-LC retention time was 735 s.

`CCc1nnc(C2CN(C)CC23CCN(S(=O)(=O)c2ccc(F)c(C)c2)CC3)o1` (stereo not given) showed an RP-LC retention time of 634 s.

Turning to `CN1CCN(CCNC(=O)c2nc3ccccn3c2-c2ccc(Cl)cc2)CC1`, the RP-LC retention time is 603 s.
